Reference: patent US20110294736A1, “COMPOUNDS AND METHODS FOR THE TREATMENT OF AUTOIMMUNE AND INFLAMMATORY DISEASE” (THE PROVOST, FELLOWS AND SCHOLARS OF THE HOLY AND UNDIVIDED …, priority 2008, published 2011)

Tested on: BMDC
Test: IL-12p40, IL-23, IL-12p70 and IL-10 ELISA in BMDC with p38 or ERK inhibitor, Tri-DAP and LPS or CpG
Format: cell-based, murine
Details: ERK inhibitor 5 μM 30 minutes before Tri-DAP 100 μg/ml
Experimental: BMDC (1×10^6) were pretreated with the p38 inhibitor, SB203580 (5 μM—FIGS. 10-11), or the ERK inhibitor UO126 (5 μM—FIGS. 12-13) for 30 minutes prior to stimulation with Tri-DAP (100 μg/ml) or medium alone. After 2 hours the cells were then stimulated with LPS (100 ng/ml—FIGS. 10 and 12), with the TLR agonist CpG (5 μg/ml—FIGS. 11 and 13) or with medium alone. Supernatants were collected after 24 hours and IL-12p40, IL-23, IL-12p70 and IL-10 concentrations were quantified by ELISA.

## N#CC(=C(/N)Sc1ccccc1N)/C(C#N)=C(\N)Sc1ccccc1N [U0126, reference compound]
LPS 100 ng/ml
  enhancement of LPS induced IL-12p70 by Tri-DAP: only marginally affected
  enhancement of LPS induced IL-23 production by Tri-DAP: suppressed
LPS 100 ng/ml or CpG 5 μg/ml
  IL-10 production by Tri-DAP with LPS or with CpG: suppressed
